According to patent US7972859B2, “Authentication of ingestible products using saccharides as markers” (Authentix, Inc., priority 2006, dated 2011):
Read-outs that look alike come from different tables or passages of the source.

Columns and labels:
Maltose binding protein = Maltose binding protein (Escherichia coli, UniProt P0AEX9); settings: cited from earlier work
MBP [1] = biological target: T1, MBP (Escherichia coli, UniProt P0AEX9); test: inhibition of amylose-MBP binding by maltose (ELISA); parameters: 6xHis (C); made in house; host or cells: E. coli BL-21 (DE3); species or system E. coli
MBP [2] = biological target: T1, MBP
Description: TMB (3,3′,5,5′ tetramethylbenzidine) is a chromogen that yields a blue color when oxidized with hydrogen peroxide (catalyzed by HRP) with major absorbances at 370 nm and 652 nm. Adding sulfuric or phosphoric acid to stop the reaction changes the product to yellow that absorbs at 450 nm and provides greater sensitivity than the blue product.
For any test samples outside of such a range, dilution with a buffered solution is carried out.

Molecule: OC[C@H]1O[C@H](O[C@H]2[C@H](O)[C@@H](O)[C@H](O)O[C@@H]2CO)[C@H](O)[C@@H](O)[C@@H]1O [maltose]
- saturated at (level) (Maltose binding protein; saturation of maltose binding protein, as ppb): about 400 ppb
- saturated at (concentration) (Maltose binding protein; saturation of maltose binding protein): about 10 μM
- interference with binding of MBP with amylose (MBP [1]; 50 μM maltose): 90%
- inhibition at 5000 µM (MBP [1]; read-out: inhibition of binding of MBP to amylose): 95%

Molecule: maltotriose
- Kd (Maltose binding protein; Kd expressed as ppb): about 120 ppb

Molecule: amylose
- Absorbance at 450 nm (MBP [2]; Na2CO3 buffer pH 8.3, listed as level 0.0001 (unit not given)): 0.215
- Absorbance at 450 nm (MBP [2]; Na2CO3 buffer pH 8.3, listed as level 0.0002 (unit not given)): 0.181
- Absorbance at 450 nm (MBP [2]; Na2CO3 buffer pH 8.3, listed as level 0.0005 (unit not given)): 0.233
- Absorbance at 450 nm (MBP [2]; Na2CO3 buffer pH 8.3, listed as level 0.001 (unit not given)): 0.216
- Absorbance at 450 nm (MBP [2]; Na2CO3 buffer pH 8.3, listed as level 0.01 (unit not given)): 0.440
- Absorbance at 450 nm (MBP [2]; Na2CO3 buffer pH 8.3, listed as level 0.1 (unit not given)): 0.870
- Absorbance at 450 nm (MBP [2]; Na2CO3 buffer pH 8.3, listed as level 1 (unit not given)): 0.748
- Absorbance at 450 nm (MBP [2]; Na2CO3 buffer pH 8.9, listed as level 0.0001 (unit not given)): 0.215
- Absorbance at 450 nm (MBP [2]; Na2CO3 buffer pH 8.9, listed as level 0.0002 (unit not given)): 0.170
- Absorbance at 450 nm (MBP [2]; Na2CO3 buffer pH 8.9, listed as level 0.0005 (unit not given)): 0.175
- Absorbance at 450 nm (MBP [2]; Na2CO3 buffer pH 8.9, listed as level 0.001 (unit not given)): 0.248
- Absorbance at 450 nm (MBP [2]; Na2CO3 buffer pH 8.9, listed as level 0.01 (unit not given)): 0.502
- Absorbance at 450 nm (MBP [2]; Na2CO3 buffer pH 8.9, listed as level 0.1 (unit not given)): 0.847
- Absorbance at 450 nm (MBP [2]; Na2CO3 buffer pH 8.9, listed as level 1 (unit not given)): 0.787
- Absorbance at 450 nm (MBP [2]; Na2CO3 buffer pH 9.3, listed as level 0.0001 (unit not given)): 0.196
- Absorbance at 450 nm (MBP [2]; Na2CO3 buffer pH 9.3, listed as level 0.0002 (unit not given)): 0.169
- Absorbance at 450 nm (MBP [2]; Na2CO3 buffer pH 9.3, listed as level 0.0005 (unit not given)): 0.152
- Absorbance at 450 nm (MBP [2]; Na2CO3 buffer pH 9.3, listed as level 0.001 (unit not given)): 0.179
- Absorbance at 450 nm (MBP [2]; Na2CO3 buffer pH 9.3, listed as level 0.01 (unit not given)): 0.438
- Absorbance at 450 nm (MBP [2]; Na2CO3 buffer pH 9.3, listed as level 0.1 (unit not given)): 0.828
- Absorbance at 450 nm (MBP [2]; Na2CO3 buffer pH 9.3, listed as level 1 (unit not given)): 0.788
- Absorbance at 450 nm (MBP [2]; Na2CO3 buffer pH 9.9, listed as level 0.0001 (unit not given)): 0.235
- Absorbance at 450 nm (MBP [2]; Na2CO3 buffer pH 9.9, listed as level 0.0002 (unit not given)): 0.182
- Absorbance at 450 nm (MBP [2]; Na2CO3 buffer pH 9.9, listed as level 0.0005 (unit not given)): 0.192
- Absorbance at 450 nm (MBP [2]; Na2CO3 buffer pH 9.9, listed as level 0.001 (unit not given)): 0.241
- Absorbance at 450 nm (MBP [2]; Na2CO3 buffer pH 9.9, listed as level 0.01 (unit not given)): 0.452
- Absorbance at 450 nm (MBP [2]; Na2CO3 buffer pH 9.9, listed as level 0.1 (unit not given)): 0.849
- Absorbance at 450 nm (MBP [2]; Na2CO3 buffer pH 9.9, listed as level 1 (unit not given)): 0.868
- Absorbance at 450 nm (MBP [2]; Na2CO3 buffer pH 10, listed as level 0.0001 (unit not given)): 0.237
- Absorbance at 450 nm (MBP [2]; Na2CO3 buffer pH 10, listed as level 0.0002 (unit not given)): 0.224
- Absorbance at 450 nm (MBP [2]; Na2CO3 buffer pH 10, listed as level 0.0005 (unit not given)): 0.183
- Absorbance at 450 nm (MBP [2]; Na2CO3 buffer pH 10, listed as level 0.001 (unit not given)): 0.160
- Absorbance at 450 nm (MBP [2]; Na2CO3 buffer pH 10, listed as level 0.01 (unit not given)): 0.432
- Absorbance at 450 nm (MBP [2]; Na2CO3 buffer pH 10, listed as level 0.1 (unit not given)): 0.793
- Absorbance at 450 nm (MBP [2]; Na2CO3 buffer pH 10, listed as level 1 (unit not given)): 0.918
- Absorbance at 450 nm (MBP [2]; Na2CO3 buffer pH 11, listed as level 0.0001 (unit not given)): 0.185
- Absorbance at 450 nm (MBP [2]; Na2CO3 buffer pH 11, listed as level 0.0002 (unit not given)): 0.183
- Absorbance at 450 nm (MBP [2]; Na2CO3 buffer pH 11, listed as level 0.0005 (unit not given)): 0.215
- Absorbance at 450 nm (MBP [2]; Na2CO3 buffer pH 11, listed as level 0.001 (unit not given)): 0.193
- Absorbance at 450 nm (MBP [2]; Na2CO3 buffer pH 11, listed as level 0.01 (unit not given)): 0.512
- Absorbance at 450 nm (MBP [2]; Na2CO3 buffer pH 11, listed as level 0.1 (unit not given)): 0.845
- Absorbance at 450 nm (MBP [2]; Na2CO3 buffer pH 11, listed as level 1 (unit not given)): 0.908
- Absorbance at 450 nm (MBP [2]; NaHCO3 buffer pH 5.7, listed as level 0.0001 (unit not given)): 0.297
- Absorbance at 450 nm (MBP [2]; NaHCO3 buffer pH 5.7, listed as level 0.0002 (unit not given)): 0.264
- Absorbance at 450 nm (MBP [2]; NaHCO3 buffer pH 5.7, listed as level 0.0005 (unit not given)): 0.314
- Absorbance at 450 nm (MBP [2]; NaHCO3 buffer pH 5.7, listed as level 0.001 (unit not given)): 0.238
- Absorbance at 450 nm (MBP [2]; NaHCO3 buffer pH 5.7, listed as level 0.01 (unit not given)): 0.465
- Absorbance at 450 nm (MBP [2]; NaHCO3 buffer pH 5.7, listed as level 0.1 (unit not given)): 0.861
- Absorbance at 450 nm (MBP [2]; NaHCO3 buffer pH 5.7, listed as level 1 (unit not given)): 0.815
- Absorbance at 450 nm (MBP [2]; NaHCO3 buffer pH 6.3, listed as level 0.0001 (unit not given)): 0.243
- Absorbance at 450 nm (MBP [2]; NaHCO3 buffer pH 6.3, listed as level 0.0002 (unit not given)): 0.192
- Absorbance at 450 nm (MBP [2]; NaHCO3 buffer pH 6.3, listed as level 0.0005 (unit not given)): 0.271
- Absorbance at 450 nm (MBP [2]; NaHCO3 buffer pH 6.3, listed as level 0.001 (unit not given)): 0.219
- Absorbance at 450 nm (MBP [2]; NaHCO3 buffer pH 6.3, listed as level 0.01 (unit not given)): 0.392
- Absorbance at 450 nm (MBP [2]; NaHCO3 buffer pH 6.3, listed as level 0.1 (unit not given)): 0.879
- Absorbance at 450 nm (MBP [2]; NaHCO3 buffer pH 6.3, listed as level 1 (unit not given)): 0.826
- Absorbance at 450 nm (MBP [2]; NaHCO3 buffer pH 6.9, listed as level 0.0001 (unit not given)): 0.199
- Absorbance at 450 nm (MBP [2]; NaHCO3 buffer pH 6.9, listed as level 0.0002 (unit not given)): 0.154
- Absorbance at 450 nm (MBP [2]; NaHCO3 buffer pH 6.9, listed as level 0.0005 (unit not given)): 0.234
- Absorbance at 450 nm (MBP [2]; NaHCO3 buffer pH 6.9, listed as level 0.001 (unit not given)): 0.140
- Absorbance at 450 nm (MBP [2]; NaHCO3 buffer pH 6.9, listed as level 0.01 (unit not given)): 0.397
- Absorbance at 450 nm (MBP [2]; NaHCO3 buffer pH 6.9, listed as level 0.1 (unit not given)): 0.896
- Absorbance at 450 nm (MBP [2]; NaHCO3 buffer pH 6.9, listed as level 1 (unit not given)): 0.853
- Absorbance at 450 nm (MBP [2]; NaHCO3 buffer pH 7.1, listed as level 0.0001 (unit not given)): 0.217
- Absorbance at 450 nm (MBP [2]; NaHCO3 buffer pH 7.1, listed as level 0.0002 (unit not given)): 0.195
- Absorbance at 450 nm (MBP [2]; NaHCO3 buffer pH 7.1, listed as level 0.0005 (unit not given)): 0.200
- Absorbance at 450 nm (MBP [2]; NaHCO3 buffer pH 7.1, listed as level 0.001 (unit not given)): 0.159
- Absorbance at 450 nm (MBP [2]; NaHCO3 buffer pH 7.1, listed as level 0.01 (unit not given)): 0.366
- Absorbance at 450 nm (MBP [2]; NaHCO3 buffer pH 7.1, listed as level 0.1 (unit not given)): 0.855
- Absorbance at 450 nm (MBP [2]; NaHCO3 buffer pH 7.1, listed as level 1 (unit not given)): 0.849
- Absorbance at 450 nm (MBP [2]; NaHCO3 buffer pH 7.7, listed as level 0.0001 (unit not given)): 0.242
- Absorbance at 450 nm (MBP [2]; NaHCO3 buffer pH 7.7, listed as level 0.0002 (unit not given)): 0.208
- Absorbance at 450 nm (MBP [2]; NaHCO3 buffer pH 7.7, listed as level 0.0005 (unit not given)): 0.187
- Absorbance at 450 nm (MBP [2]; NaHCO3 buffer pH 7.7, listed as level 0.001 (unit not given)): 0.254
- Absorbance at 450 nm (MBP [2]; NaHCO3 buffer pH 7.7, listed as level 0.01 (unit not given)): 0.387
- Absorbance at 450 nm (MBP [2]; NaHCO3 buffer pH 7.7, listed as level 0.1 (unit not given)): 0.817
- Absorbance at 450 nm (MBP [2]; NaHCO3 buffer pH 7.7, listed as level 1 (unit not given)): 0.809
